Data published in patent publication US20220187282A1, “CARDIOMYOCYTE PROLIFERATION” (The Council of the Queensland Institute of Medical Research, priority 2019, published 2022).
Read-outs that look alike come from different tables or passages of the source.

Tests used:
Type in all cases: biochemical
[1] = target: kinases (Homo sapiens, UniProt Q15418); settings: RPS6KA1 (RSK1) FRET-Z-Lyte SP; Test Conc(μM):ATP Conc(μM) 1:5
[2] = target: kinases (Homo sapiens, UniProt O15146); settings: MUSK *Mn* FRET-Z-Lyte SP; Test Conc(μM):ATP Conc(μM) 1:50
[3] = target: kinases (Homo sapiens, UniProt P43405); settings: SYK FRET-Z-Lyte SP; Test Conc(μM):ATP Conc(μM) 1:25
[4] = target: kinases (Homo sapiens, UniProt P42685); settings: FRK (PTK5) FRET-Z-Lyte SP; Test Conc(μM):ATP Conc(μM) 1:50
kinases (Homo sapiens, UniProt P42685), sequence (P42685 whole entry): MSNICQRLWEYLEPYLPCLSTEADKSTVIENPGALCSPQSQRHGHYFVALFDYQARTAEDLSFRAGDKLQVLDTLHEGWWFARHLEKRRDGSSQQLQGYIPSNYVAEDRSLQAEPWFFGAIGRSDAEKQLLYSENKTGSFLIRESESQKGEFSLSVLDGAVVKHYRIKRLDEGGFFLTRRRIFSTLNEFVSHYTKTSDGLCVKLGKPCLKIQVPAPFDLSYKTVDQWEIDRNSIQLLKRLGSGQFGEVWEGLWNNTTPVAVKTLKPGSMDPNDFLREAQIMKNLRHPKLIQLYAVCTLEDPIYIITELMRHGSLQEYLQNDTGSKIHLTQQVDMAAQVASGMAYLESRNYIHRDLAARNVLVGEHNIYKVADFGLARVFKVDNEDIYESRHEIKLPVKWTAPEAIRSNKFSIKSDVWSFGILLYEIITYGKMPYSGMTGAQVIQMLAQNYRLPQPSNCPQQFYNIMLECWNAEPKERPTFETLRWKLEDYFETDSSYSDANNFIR

[5] = target: kinases (Homo sapiens, UniProt Q00535)
kinases (Homo sapiens, UniProt Q00535), sequence (Q00535 whole entry): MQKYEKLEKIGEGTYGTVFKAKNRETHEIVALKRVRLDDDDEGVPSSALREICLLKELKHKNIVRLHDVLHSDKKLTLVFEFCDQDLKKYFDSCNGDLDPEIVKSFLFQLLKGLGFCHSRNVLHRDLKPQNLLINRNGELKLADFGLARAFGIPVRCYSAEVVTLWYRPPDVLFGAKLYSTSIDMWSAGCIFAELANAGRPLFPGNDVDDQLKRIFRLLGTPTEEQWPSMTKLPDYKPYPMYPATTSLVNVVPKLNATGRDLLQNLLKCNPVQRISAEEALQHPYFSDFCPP

[6] = target: kinases (Homo sapiens, UniProt Q9UF33); settings: EPHA6 FRET-Lantha SP; Test Conc(μM) 1
[7] = target: kinases (Homo sapiens, UniProt Q16584); settings: MAP3K11 (MLK3) FRET-Lantha SP; Test Conc(μM) 1
[8] = target: kinases (Homo sapiens, UniProt Q15746); settings: MYLK (MLCK) FRET-Lantha SP; Test Conc(μM) 1
[9] = target: kinases (Homo sapiens, UniProt P12931); settings: SRC Hu Phos FRET-Z-Lyte SP; Test Conc(μM):ATP Conc(μM) 1:50
kinases (Homo sapiens, UniProt P12931), sequence (P12931 whole entry): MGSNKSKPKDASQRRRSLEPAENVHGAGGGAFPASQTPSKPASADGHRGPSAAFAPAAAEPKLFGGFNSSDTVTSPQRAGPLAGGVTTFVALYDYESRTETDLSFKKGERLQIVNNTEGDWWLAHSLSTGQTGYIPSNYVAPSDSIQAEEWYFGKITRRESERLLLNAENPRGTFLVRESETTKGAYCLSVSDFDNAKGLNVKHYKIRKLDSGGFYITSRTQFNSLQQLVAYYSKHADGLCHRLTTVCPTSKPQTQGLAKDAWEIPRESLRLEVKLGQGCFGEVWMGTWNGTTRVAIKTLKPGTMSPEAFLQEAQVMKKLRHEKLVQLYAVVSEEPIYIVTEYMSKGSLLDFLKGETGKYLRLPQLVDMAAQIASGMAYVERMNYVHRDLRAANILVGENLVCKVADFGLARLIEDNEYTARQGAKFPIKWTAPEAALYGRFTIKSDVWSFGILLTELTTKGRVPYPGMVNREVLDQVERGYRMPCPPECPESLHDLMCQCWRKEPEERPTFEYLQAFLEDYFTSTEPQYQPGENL

[10] = target: kinases (Homo sapiens, UniProt Q9Y2H1); settings: STK38L (NDR2) FRET-Lantha SP; Test Conc(μM) 1
kinases (Homo sapiens, UniProt Q9Y2H1), sequence (Q9Y2H1 whole entry): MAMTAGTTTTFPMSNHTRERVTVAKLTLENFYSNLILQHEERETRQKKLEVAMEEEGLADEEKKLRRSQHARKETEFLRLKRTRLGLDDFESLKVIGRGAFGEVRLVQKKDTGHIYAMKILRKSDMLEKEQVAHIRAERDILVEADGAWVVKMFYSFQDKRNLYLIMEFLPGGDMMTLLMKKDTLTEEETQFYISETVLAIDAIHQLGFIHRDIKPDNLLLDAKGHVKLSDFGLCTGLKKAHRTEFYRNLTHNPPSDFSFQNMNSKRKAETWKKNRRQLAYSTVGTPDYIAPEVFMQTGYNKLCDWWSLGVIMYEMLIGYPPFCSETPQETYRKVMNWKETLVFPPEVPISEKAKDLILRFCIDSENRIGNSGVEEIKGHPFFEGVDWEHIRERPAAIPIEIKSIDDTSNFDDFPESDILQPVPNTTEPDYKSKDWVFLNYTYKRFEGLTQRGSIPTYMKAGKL

[11] = target: kinases (Homo sapiens, UniProt P07333); settings: CSF1R (FMS) FRET-Z-Lyte SP; Test Conc(μM):ATP Conc(μM) 1:500
[12] = target: kinases (Homo sapiens, UniProt P48730); settings: CSNK1D (CK1 delta) Z-Lyte SP; Test Conc(μM):ATP Conc(μM) 1:5
[13] = target: kinases (Homo sapiens, UniProt P78368); settings: CSNK1G2 (CK1gamma2) Z-Lyte SP; Test Conc(μM):ATP Conc(μM) 1:5
[14] = target: kinases (Homo sapiens, UniProt Q9BZL6); settings: PRKD2 (PKD2) Z-Lyte SP; Test Conc(μM):ATP Conc(μM) 1:25
[15] = target: kinases (Homo sapiens, UniProt P37023); settings: ACVRL1 (ALK1) FRET-Lantha SP; Test Conc(μM) 1
kinases (Homo sapiens, UniProt P37023), sequence (P37023 22-503): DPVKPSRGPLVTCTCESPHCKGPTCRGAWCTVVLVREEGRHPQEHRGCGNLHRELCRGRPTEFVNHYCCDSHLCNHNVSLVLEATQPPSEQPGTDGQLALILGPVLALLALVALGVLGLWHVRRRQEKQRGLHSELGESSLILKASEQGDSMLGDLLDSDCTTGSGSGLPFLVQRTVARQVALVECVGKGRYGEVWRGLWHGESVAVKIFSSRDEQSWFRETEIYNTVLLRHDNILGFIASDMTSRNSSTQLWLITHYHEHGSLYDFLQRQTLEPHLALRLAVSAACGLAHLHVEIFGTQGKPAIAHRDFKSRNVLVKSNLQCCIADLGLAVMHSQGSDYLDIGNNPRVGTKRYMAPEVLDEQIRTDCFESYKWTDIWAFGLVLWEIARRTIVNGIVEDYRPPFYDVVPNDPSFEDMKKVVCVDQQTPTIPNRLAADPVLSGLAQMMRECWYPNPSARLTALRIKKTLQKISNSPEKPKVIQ

[16] = target: kinases (Homo sapiens, UniProt O43293); settings: DAPK3 (ZIPK) FRET-Z-Lyte SP; Test Conc(μM):ATP Conc(μM) 1:5
[17] = target: kinases (Homo sapiens, UniProt P22607); settings: FGFR3 *Mn* FRET-Z-Lyte SP; Test Conc(μM):ATP Conc(μM) 1:75
kinases (Homo sapiens, UniProt P22607), sequence (P22607 23-806): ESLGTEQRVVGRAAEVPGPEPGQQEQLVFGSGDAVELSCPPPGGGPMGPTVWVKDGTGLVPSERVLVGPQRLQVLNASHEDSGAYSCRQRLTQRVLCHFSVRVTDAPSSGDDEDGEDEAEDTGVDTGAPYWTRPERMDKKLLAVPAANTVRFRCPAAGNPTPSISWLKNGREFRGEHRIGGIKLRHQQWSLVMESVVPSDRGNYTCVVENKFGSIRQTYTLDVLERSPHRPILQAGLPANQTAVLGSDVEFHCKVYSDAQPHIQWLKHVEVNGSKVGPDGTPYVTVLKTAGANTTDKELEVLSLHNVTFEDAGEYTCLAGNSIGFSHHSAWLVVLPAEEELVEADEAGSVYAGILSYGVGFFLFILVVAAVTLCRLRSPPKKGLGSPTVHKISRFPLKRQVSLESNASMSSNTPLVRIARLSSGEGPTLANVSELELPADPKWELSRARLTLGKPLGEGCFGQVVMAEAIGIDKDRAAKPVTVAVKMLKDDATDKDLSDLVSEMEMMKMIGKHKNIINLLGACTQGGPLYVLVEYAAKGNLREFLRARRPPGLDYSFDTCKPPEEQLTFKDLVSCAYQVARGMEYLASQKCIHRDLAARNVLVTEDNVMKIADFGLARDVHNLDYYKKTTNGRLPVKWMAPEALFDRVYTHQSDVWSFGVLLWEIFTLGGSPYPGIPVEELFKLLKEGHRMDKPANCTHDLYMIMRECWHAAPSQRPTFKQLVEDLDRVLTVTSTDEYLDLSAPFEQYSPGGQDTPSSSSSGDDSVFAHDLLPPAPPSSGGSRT

[18] = target: kinases (Homo sapiens, UniProt Q7KZI7); settings: MARK2 FRET-Z-Lyte SP; Test Conc(μM):ATP Conc(μM) 1:10
kinases (Homo sapiens, UniProt Q7KZI7), sequence (Q7KZI7 whole entry): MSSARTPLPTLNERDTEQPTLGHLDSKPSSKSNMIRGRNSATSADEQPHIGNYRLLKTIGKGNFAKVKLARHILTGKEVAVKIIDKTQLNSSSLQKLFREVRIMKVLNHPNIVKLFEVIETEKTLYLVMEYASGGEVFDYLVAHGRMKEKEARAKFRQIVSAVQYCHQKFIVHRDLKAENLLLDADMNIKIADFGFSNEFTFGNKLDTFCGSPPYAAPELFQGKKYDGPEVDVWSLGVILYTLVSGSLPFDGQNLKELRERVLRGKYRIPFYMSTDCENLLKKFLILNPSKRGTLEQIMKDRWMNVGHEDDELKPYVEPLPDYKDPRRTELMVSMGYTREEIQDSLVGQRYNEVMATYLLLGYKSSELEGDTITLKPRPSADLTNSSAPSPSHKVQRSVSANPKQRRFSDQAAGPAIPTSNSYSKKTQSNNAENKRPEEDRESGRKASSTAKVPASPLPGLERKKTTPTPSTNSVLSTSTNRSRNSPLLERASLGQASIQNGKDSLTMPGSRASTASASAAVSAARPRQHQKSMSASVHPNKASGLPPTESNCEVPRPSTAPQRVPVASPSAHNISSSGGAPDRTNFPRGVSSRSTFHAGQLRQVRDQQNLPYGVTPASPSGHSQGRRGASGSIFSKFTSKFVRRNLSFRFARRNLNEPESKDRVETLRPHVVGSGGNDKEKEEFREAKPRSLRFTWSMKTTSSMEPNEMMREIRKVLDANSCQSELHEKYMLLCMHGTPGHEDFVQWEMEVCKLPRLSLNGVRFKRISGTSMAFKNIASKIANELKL

[19] = target: kinases (Homo sapiens, UniProt P53350); settings: PLK1 FRET-Z-Lyte SP; Test Conc(μM):ATP Conc(μM) 1:10
[20] = target: kinases (Homo sapiens, UniProt Q16832); settings: DDR2 Hu Bind FRET-Lantha SP; Test Conc(μM) 1
[21] = target: kinases (Homo sapiens, UniProt P04629); settings: NTRK1 (TRKA) FRET-Z-Lyte SP; Test Conc(μM):ATP Conc(μM) 1:400
[22] = target: kinases (Homo sapiens, UniProt P27448); settings: MARK3 FRET-Z-Lyte SP; Test Conc(μM):ATP Conc(μM) 1:5
[23] = target: kinases (Homo sapiens, UniProt Q9BTU6); settings: PI4K2A *Mn* FRET-Adapta SP; Test Conc(μM):ATP Conc(μM) 1:10
[24] = target: kinases (Homo sapiens, UniProt Q16816); settings: PHKG1 FRET-Z-Lyte SP; Test Conc(μM):ATP Conc(μM) 1:75
[25] = target: kinases (Homo sapiens, UniProt Q9NYY3); settings: PLK2 FRET-Z-Lyte SP; Test Conc(μM):ATP Conc(μM) 1:25
[26] = target: kinases (Homo sapiens, UniProt Q00526); settings: CDK3/cyclin E1 FRET-Lantha SP; Test Conc(μM) 1
kinases (Homo sapiens, UniProt Q00526), sequence (Q00526 whole entry): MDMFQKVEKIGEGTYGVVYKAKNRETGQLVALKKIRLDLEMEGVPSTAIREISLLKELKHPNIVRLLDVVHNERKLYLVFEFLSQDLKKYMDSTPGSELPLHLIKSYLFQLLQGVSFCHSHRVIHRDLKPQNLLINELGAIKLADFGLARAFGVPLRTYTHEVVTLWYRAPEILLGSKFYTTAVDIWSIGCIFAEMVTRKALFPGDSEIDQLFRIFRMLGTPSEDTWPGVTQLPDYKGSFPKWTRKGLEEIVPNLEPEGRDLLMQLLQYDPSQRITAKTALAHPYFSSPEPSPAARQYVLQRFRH

[27] = target: kinases (Homo sapiens, UniProt Q9UK32); settings: RPS6KA6 (RSK4) FRET-Z-Lyte SP; Test Conc(μM):ATP Conc(μM) 1:25
kinases (Homo sapiens, UniProt Q9UK32), sequence (Q9UK32 whole entry): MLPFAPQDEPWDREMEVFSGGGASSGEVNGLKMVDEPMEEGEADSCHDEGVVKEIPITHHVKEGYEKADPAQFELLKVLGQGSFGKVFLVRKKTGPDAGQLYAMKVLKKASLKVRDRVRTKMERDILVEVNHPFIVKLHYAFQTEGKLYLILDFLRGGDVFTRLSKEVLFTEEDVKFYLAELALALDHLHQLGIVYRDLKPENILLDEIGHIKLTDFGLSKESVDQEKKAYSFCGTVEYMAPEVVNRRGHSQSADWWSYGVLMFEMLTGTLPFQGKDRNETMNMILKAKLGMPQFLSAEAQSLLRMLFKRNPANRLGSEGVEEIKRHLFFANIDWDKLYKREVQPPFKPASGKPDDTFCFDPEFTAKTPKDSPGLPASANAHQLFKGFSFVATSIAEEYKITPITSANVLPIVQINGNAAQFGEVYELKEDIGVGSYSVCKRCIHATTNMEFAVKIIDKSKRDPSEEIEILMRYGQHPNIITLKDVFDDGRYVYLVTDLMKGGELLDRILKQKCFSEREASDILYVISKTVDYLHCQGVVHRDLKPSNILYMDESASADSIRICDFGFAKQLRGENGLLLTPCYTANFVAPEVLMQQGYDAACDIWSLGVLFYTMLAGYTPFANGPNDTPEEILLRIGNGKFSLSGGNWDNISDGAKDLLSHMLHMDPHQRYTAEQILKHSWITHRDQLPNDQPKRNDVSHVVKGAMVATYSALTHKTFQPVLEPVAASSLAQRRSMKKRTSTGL

[28] = target: kinases (Homo sapiens, UniProt P42345); settings: FRAP1 (mTOR) *Mn* Z-Lyte SP; Test Conc(μM):ATP Conc(μM) 1:10
[29] = CDK5 (Inactive) FRET-Lantha SP, Test Conc(μM) 1
[30] = CDK5/p25 FRET-Z-Lyte SP, Test Conc(μM):ATP Conc(μM) 1:10
[31] = CDK5/p35 FRET-Z-Lyte SP, Test Conc(μM):ATP Conc(μM) 1:10

Row | SMILES | Mean Inhib (%) [1] [%] | Mean Inhib (%) [2] [%] | Mean Inhib (%) [3] [%] | Mean Inhib (%) [4] [%] | Mean Inhib (%) [5, 29] [%] | Mean Inhib (%) [5, 30] [%] | Mean Inhib (%) [5, 31] [%] | Mean Inhib (%) [6] [%] | Mean Inhib (%) [7] [%] | Mean Inhib (%) [8] [%] | Mean Inhib (%) [9] [%] | Mean Inhib (%) [10] [%] | Mean Inhib (%) [11] [%] | Mean Inhib (%) [12] [%] | Mean Inhib (%) [13] [%] | Mean Inhib (%) [14] [%] | Mean Inhib (%) [15] [%] | Mean Inhib (%) [16] [%] | Mean Inhib (%) [17] [%] | Mean Inhib (%) [18] [%] | further results
1 | Cc1ccc(NC(=O)c2ccnc(N3CCOCC3)c2)cc1Nc1ccnc(N2CC(C)OC(C)C2)n1 (stereo not drawn) [compound 3] | 14.8 | 19.5 | −3.9 | 5.7 | 5.2 | 2.0 | 0.9 | 1.9 | −0.7 | 2.2 | 14.3 | 15.6 | 12.1 | 1.2 | 3.9 | 1.5 | 7.2 | 3.3 | −2.6 | 7.4 | Mean Inhib (%) [19]: 3.0%; Mean Inhib (%) [20]: 65.5%; Mean Inhib (%) [21]: 30.7%; Mean Inhib (%) [22]: 8.9%; Mean Inhib (%) [23]: −2.4%; Mean Inhib (%) [24]: −3.8%; Mean Inhib (%) [25]: 1.8%; Mean Inhib (%) [26]: 6.0%; Mean Inhib (%) [27]: −9.0%; Mean Inhib (%) [28]: 0.7%
2 | Cc1cc(Oc2ccnc(Nc3ccc(S(N)(=O)=O)cc3)c2)c(-c2ccccn2)nc1C [compound 65] | 5.3 | 17.2 | 2.5 | 60.1 | 17.2 | 8.0 | 2.5 | 54.2 | −0.8 | −0.5 | 54.4 | 5.5 | 20.0 | 1.9 | 5.9 | 21.2 | 77.2 | −11.8 | 7.7 | 3.8 | Mean Inhib (%) [19]: 9.6%; Mean Inhib (%) [20]: 1.6%; Mean Inhib (%) [21]: 20.1%; Mean Inhib (%) [22]: 4.7%; Mean Inhib (%) [23]: −2.9%; Mean Inhib (%) [24]: −6.4%; Mean Inhib (%) [25]: 14.0%; Mean Inhib (%) [26]: 9.6%; Mean Inhib (%) [27]: −0.7%; Mean Inhib (%) [28]: −8.8%
